Several values for one entry are separate records, joined by “and”; a condition that tells them apart may be missing. Identical values can stand only once. Like-named read-outs stand apart in the source and are kept apart here.
What was measured:
[1] = cited from earlier work
[2] = tested on: 3‐hydroxy‐3‐methyl‐glutaryl‐coenzyme A reductase (HMGCR); conditions: background statement in introduction; cited from earlier work
[3] = Genotype-stratified analysis: PPI association with endpoints by CYP2C19 predicted metaboliser status; type: in vivo, human; conditions: adjusted
Protocol: (§1) Exploratory genotype‐stratified analyses were carried out to further assess key identified drug–drug interactions. Specifically, the adjusted association of PPIs with endpoints was determined following cohort stratification by CYP2C19 predicted metaboliser status, because PPIs are metabolised by CYP2C19.22, 23 CYP2C19 was stratified by *2 (rs4244285; directly genotyped) and *17 (rs12248560; imputed) diplotypes into: extensive (EM, *1/*1), intermediate (IM, *1/*2 or *2/*17), poor (PM, *2/*2), rapid (RM, *1/*17) and ultra‐rapid metabolisers (UM, *17/*17). Due to the small number of PM (n = 10) and UM (n = 24) patients, PMs were combined with IMs, and UMs with RMs, for analysis. […] Secondly, the impact of https://www.guidetopharmacology.org/GRAC/ObjectDisplayForward?objectId=792 rs2231142 (Q141K; imputed) on the adjusted associations of loop diuretics with the endpoints was considered.
(§2) The sensitivity and genotype‐stratified analyses were only conducted on those endpoints where the perpetrator comedication of interest had been included in the endpoint's main analysis model, and P < .05 was taken to indicate significance. All statistical testing was carried out in the R computing environment,26 except for the secondary stepwise analysis that was undertaken in IBM SPSS version 22.0 (IBM Corp, Armonk, NY, USA); boxplots were produced in GraphPad Prism (version 5.00 for Windows: GraphPad Software Inc., San Diego, USA).

[4] = Main analysis: all subsets multivariable linear regression with BIC model averaging of clinical factors/comedications on ATV analyte levels, ratios and sum total; type: in vivo, human; conditions: log10 transformed plasma concentration, model averaged coefficient
From the text: All variables were considered in model selection (see below) except hypertension, hyperlipidaemia, and prior CVD.
Prior to modelling, all endpoints were log10 transformed to normalise the distribution of (observed) residuals and optimise homoscedasticity.
Third, the derived models were ranked according to the Bayesian information criterion (BIC), which is more conservative than the corrected Akaike information criterion because BIC carries a larger penalty for increasing model complexity.19 Fourth, all models with a BIC within 2 of the model with the lowest BIC (BIC Δ < 2) underwent model averaging to produce model averaged (unstandardised) coefficients and standard errors for all the covariates included in this set of models, to enable multimodel inferences. The model selection constraint of Δ < 2 was chosen because the empirical evidence supporting each of these models is considered essentially equivalent.19 Conditional averaging was used, and so for a given covariate, its coefficient and standard error were averaged from only those models with BIC Δ < 2 that contained the covariate.20 This approach was taken because of the interest in assessing the relationship between individual covariates and the endpoints, with overall model predictive capability of secondary importance.21 The relative importance of each of the selected covariates to the endpoint was assessed by summing the BIC‐derived model weight for all models that underwent model averaging and contained the covariate. The P‐value for each covariate in the final model is provided for reference only. The utility of the final produced model for describing the observed variation in the endpoint was assessed using the unadjusted R^2 value. This process was undertaken for all endpoints. The above described covariate selection and model averaging was carried out using the R statistical package, MuMIn. 20

[5] = Genotype-stratified analysis: loop diuretic association with endpoints by ABCG2 rs2231142 (Q141K); type: in vivo, human; conditions: adjusted
Protocol: as §1, §2

[6] = Plasma concentrations of ATV and metabolites by HPLC-MS/MS in NSTE-ACS patients at V2 (1 month); type: in vivo, human; conditions: for concentration at […] / concentration at 1 month: human, plasma, oral; for concentration at […]: plasma at V2, median […] since last ATV (estimated), read-out: Conc (ng/mL), median (IQR); for concentration at 1 month: median ATV concentration, unadjusted
From the text: This investigation harnessed the Pharmacogenetics of Acute Coronary Syndrome (PhACS) study, described previously.13 Briefly, PhACS was a UK multicentre prospective observational study that recruited 1470 eligible patients hospitalised with an NSTE‐ACS between 2008–2012 and followed them up at 1 (V2) and 12 (V3) months. Demographic, comorbidity and prescription information was collected at baseline; drug use, drug adherence, and new clinical events were captured during follow up. PhACS participants were genotyped using the Illumina HumanOmniExpressExome‐8 v1.0 BeadChip at Edinburgh Genomics (Roslin Institute, Scotland).
Briefly, 50‐μL plasma samples were first mixed with 20 μL of a composite internal standard solution containing a deuterated internal standard for each analyte, and then diluted further by addition of 180 μL 100% acetonitrile containing 0.3% acetic acid. Following centrifugation, the supernatant was diluted 1:2 in water and a 5‐μL aliquot injected for analysis. Analytes were separated using a 2.7‐μm Halo C18 column (50 × 2.1 mm ID, 90 Å, Hichrom Limited, Reading, UK, part number: 92812–402) with gradient elution, housed within a Shimadzu Nexera X2 modular system (Kyoto, Japan). Analytes were detected in low mass positive ionisation mode using multiple reaction monitoring (Sciex triple quadrupole 6500 QTRAP mass spectrometer with a Turbo electrospray source, AB Sciex, Warrington, UK). […] Calibration and quality control (QC) samples were prepared in pooled healthy human volunteer K3 EDTA plasma (Sera Laboratories International, West Sussex, UK).

[7] = tested on: breast cancer resistance protein (BCRP, encoded by ABCG2); conditions: cited from earlier work
[8] = CYP2C19 EM (n = 233), on PPI n = 88
[9] = CYP2C19 PM/IM (n = 152), on PPI n = 58
[10] = CYP2C19 RM/UM (n = 186), on PPI n = 83
[11] = ABCG2 rs2231142 WT (n = 435), on LD n = 74
[12] = ABCG2 rs2231142 variant carrier (n = 136), on LD n = 22

For CC(C)c1c(C(=O)Nc2ccccc2)c(-c2ccccc2)c(-c2ccc(F)cc2)n1CC[C@@H](O)C[C@@H](O)CC(=O)O [ATV, atorvastatin, reference compound], the “fraction of an ATV dose excreted through the kidneys” value [1] is given as under 2%, the “activity against HMGCR” value [2] is given as “inhibit” and the “B (SE), Proton pump inhibitor on analyte level” value (shortened to “B (SE), Proton pump inhibitor”) [3, 8] is given as 0.052 (0.045). The “B (SE), Proton pump inhibitor” value [3, 9] was 0.046 (0.061), the “B (SE), Proton pump inhibitor” value [3, 10] was 0.162 (0.050) and the “B (SE), ATV dose on analyte level” value [4] was 0.153 (0.058). The “B (SE), Age on analyte level” value [4] was 0.004 (0.001), the “B (SE), Amiodarone on analyte level” value [4] was 0.282 (0.129) and the “B (SE), Loop diuretic on analyte level” value [4] was 0.099 (0.040). For the same compound, the “B (SE), Proton pump inhibitor” value [4] was 0.093 (0.030), the “B (SE), Time since last ATV on analyte level” value (“B (SE), Time since last ATV” for short) [4] was −0.001 (0.0001) and the “B (SE), Loop diuretic on analyte level” value [5, 11] was 0.121 (0.044). The “B (SE), Loop diuretic on analyte level” value [5, 12] was 0.041 (0.086), the concentration at […] ([6]; 40 mg daily, 40 mg ATV daily) was 3.96 ng/mL and the concentration at […] ([6]; 80 mg daily, 80 mg ATV daily) was 5.22 ng/mL. For the same compound, the concentration at 1 month ([6]; patients not on a PPI) was 4.9 ng/mL, the concentration at 1 month ([6]; patients not on a loop diuretic) was 4.9 ng/mL and the concentration at 1 month ([6]; patients on a PPI) was 5.6 ng/mL. For the same compound, the concentration at 1 month ([6]; patients on a loop diuretic) was 6.8 ng/mL, the “increase in median ATV concentration” value ([6]; with PPIs vs without) was 14% and ~ 14% and the “increase in median ATV concentration” value ([6]; with loop diuretics vs without) was 38% and ~ 38%.
With CC(C)c1c(C(=O)Nc2ccccc2)c(-c2ccccc2)c(-c2ccc(F)cc2)n1CCC1CC(O)CC(=O)O1 (centres unmarked) [ATV L] the “B (SE), Proton pump inhibitor” value [3, 8] was 0.076 (0.050), the “B (SE), Proton pump inhibitor” value [3, 9] was 0.084 (0.070) and the “B (SE), Proton pump inhibitor” value [3, 10] was 0.232 (0.053). For the same compound, the “B (SE), ATV dose on analyte level” value [4] was 0.222 (0.064), the “B (SE), Amiodarone on analyte level” value [4] was 0.320 (0.142) and the “B (SE), Body mass index on analyte level” value [4] was −0.006 (0.003). For the same compound, the “B (SE), Loop diuretic on analyte level” value [4] was 0.121 (0.043), the “B (SE), Proton pump inhibitor” value [4] was 0.139 (0.033) and the “B (SE), Sample storage duration on analyte level” value (“B (SE), Sample storage duration” below) [4] was 0.0002 (0.00004). For the same compound, the “B (SE), Sex (F vs M) on analyte level” value [4] was −0.097 (0.038), the “B (SE), Time since last ATV” value [4] was −0.0007 (0.0001) and the “B (SE), Loop diuretic on analyte level” value [5, 11] was 0.149 (0.048). For the same compound, the “B (SE), Loop diuretic on analyte level” value [5, 12] was 0.077 (0.089), the concentration at […] ([6]; 40 mg daily, 40 mg ATV daily) was 2.51 ng/mL and the concentration at […] ([6]; 80 mg daily, 80 mg ATV daily) was 3.97 ng/mL.
In the case of CCCCNc1cc(C(=O)O)cc(S(N)(=O)=O)c1Oc1ccccc1 [bumetanide], the “inhibition of BCRP in vitro” value [7] is listed as “inhibit”.
In the case of CC(C)c1c(C(=O)Nc2ccc(O)cc2)c(-c2ccccc2)c(-c2ccc(F)cc2)n1CC[C@@H](O)C[C@@H](O)CC(=O)O [4‐OH ATV], the “activity against HMGCR” value [2] is listed as “inhibit”.
For CC(C)c1c(C(=O)Nc2ccc(O)cc2)c(-c2ccccc2)c(-c2ccc(F)cc2)n1CCC1CC(O)CC(=O)O1 (centres unmarked) [4‐OH ATV L], the “activity against HMGCR” value [2] is given as “inactive”.
In the case of CC(C)c1c(C(=O)Nc2ccccc2O)c(-c2ccccc2)c(-c2ccc(F)cc2)n1CC[C@@H](O)C[C@@H](O)CC(=O)O [2‐OH ATV], the “B (SE), Proton pump inhibitor” value [3, 8] is reported as 0.045 (0.038), the “B (SE), Proton pump inhibitor” value [3, 9] is reported as 0.032 (0.050) and the “B (SE), Smoking on analyte level” value ([4]; current vs previous/never) is reported as −0.076 (0.028). For the same compound, the “B (SE), ATV dose on analyte level” value [4] was 0.212 (0.048), the “B (SE), Age on analyte level” value [4] was 0.007 (0.001) and the “B (SE), Body mass index on analyte level” value [4] was −0.006 (0.002). For the same compound, the “B (SE), Chronic kidney disease on analyte level” value [4] was 0.111 (0.051), the “B (SE), Diabetes mellitus on analyte level” value [4] was 0.079 (0.031) and the “B (SE), Loop diuretic on analyte level” value [4] was 0.074 (0.033). The “B (SE), Proton pump inhibitor” value [4] was 0.062 (0.024), the “B (SE), Sample storage duration” value [4] was −0.0001 (0.00003) and the “B (SE), Time since last ATV” value [4] was −0.0007 (0.0001). The “B (SE), Loop diuretic on analyte level” value [5, 11] was 0.072 (0.039), the “B (SE), Loop diuretic on analyte level” value [5, 12] was −0.051 (0.077) and the concentration at […] ([6]; 40 mg daily, 40 mg ATV daily) was 5.35 ng/mL. For the same compound, the concentration at […] ([6]; 80 mg daily, 80 mg ATV daily) was 6.93 ng/mL.
For CC(C)c1c(C(=O)Nc2ccccc2O)c(-c2ccccc2)c(-c2ccc(F)cc2)n1CCC1CC(O)CC(=O)O1 (centres unmarked) [2‐OH ATV L], the “activity against HMGCR” value [2] is given as “inactive”, the “B (SE), Proton pump inhibitor” value [3, 8] is given as 0.065 (0.039) and the “B (SE), Proton pump inhibitor” value [3, 9] is given as 0.018 (0.057). The “B (SE), Proton pump inhibitor” value [3, 10] was 0.199 (0.042), the “B (SE), ATV dose on analyte level” value [4] was 0.215 (0.051) and the “B (SE), Age on analyte level” value [4] was 0.006 (0.001). For the same compound, the “B (SE), Body mass index on analyte level” value [4] was −0.006 (0.002), the “B (SE), Hepatic disease on analyte level” value [4] was −0.289 (0.134) and the “B (SE), Loop diuretic on analyte level” value [4] was 0.084 (0.035). The “B (SE), Proton pump inhibitor” value [4] was 0.106 (0.026), the “B (SE), Sample storage duration” value [4] was 0.0001 (0.00003) and the “B (SE), Time since last ATV” value [4] was −0.0006 (0.0001). The “B (SE), Loop diuretic on analyte level” value [5, 11] was 0.102 (0.040), the “B (SE), Loop diuretic on analyte level” value [5, 12] was 0.044 (0.075) and the concentration at […] ([6]; 40 mg daily, 40 mg ATV daily) was 4.24 ng/mL. It also gave a concentration at […] ([6]; 80 mg daily, 80 mg ATV daily) of 7 ng/mL.
